Data on 16 compounds can be found in patent US10821115B2, “Compounds that inhibit Mcl-1 protein” (priority 2017, dated 2020).

Like-named read-outs stand apart in the source and are kept apart here.

The target of assay [1] is recombinant human Mcl-1 (residues 171-327) / Bim interaction (Homo sapiens (Human), UniProt Q07820). Briefly: biochemical. The format is binding. Particulars: read-out: Mcl-1 HTRF IC50. (In general: Time-resolved FRET reads energy transfer from a long-lived donor to a nearby acceptor.)
recombinant human Mcl-1 (residues 171-327) / Bim interaction, sequence (Q07820 171-327): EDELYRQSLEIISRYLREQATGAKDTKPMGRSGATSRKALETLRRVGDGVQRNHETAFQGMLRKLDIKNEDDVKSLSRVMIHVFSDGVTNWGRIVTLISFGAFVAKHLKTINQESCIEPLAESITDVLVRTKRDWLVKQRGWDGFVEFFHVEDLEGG
For assay [2], the system named is human multiple myeloma cell line, OPM-2. Description: Cell viability assay (OPM-2 10 FBS), CellTiter-Glo. The format is cell-based. The gist of the method: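 Cells were seeded at 3000 cells/well in RPMI 1640 with 10% FBS and exposed to serially diluted compounds for 16 h at 37 °C, 5% CO2.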
Setting [3] is: TR-FRET, Mcl-1(171-327) / biotin-Bim (51-76).
Where [4] appears, read: read-out: OPM-2 10% FBS IC50 IP, OPM-2 cells, 10% FBS, 16 h, CellTiter-Glo.
Where [5] appears, read: Homo sapiens, OPM-2, 16 h, read-out: OPM-2 10% FBS IC50 IP, OPM-2 cells, 10% FBS, 16 h, CellTiter-Glo.
The mark [6] stands for this setting: 0.1 nM Mcl-1(171-327), 0.05 nM biotin-Bim (51-76).
The mark [7] stands for this setting: read-out: OPM-2 10% FBS IC50 IP, OPM-2 cells, 10% FBS, 16 h incubation.
The mark [8] stands for this setting: Homo sapiens, OPM-2, 16 h, read-out: OPM-2 10% FBS IC50 IP, OPM-2 cells, 10% FBS, 16 h incubation.

On to `CCOP(=O)(OCC)C(F)(F)[C@]1(O)/C=C/C[C@H](C)[C@@H](C)S(=O)(=O)NC(=O)c2ccc3c(c2)N(C[C@@H]2CC[C@H]21)C[C@@]1(CCCc2cc(Cl)ccc21)CO3` [Example 100067, diethyl (((1S,3′R,6′R,7′S,8′E,11′S,12′R)-6-chloro-7′-hydroxy-11′,12′-dimethyl-13′,13′-dioxido-15′-oxo-3,4-dihydro-2H-spiro[naphthalene-1,22′-[20]oxa[13]thia[1,14]diazatetracyclo [14.7.2.0~3,6~.0~19,24~]pentacosa[8,16,18,24]tetraen]-7′-yl)(difluoro)methyl)phosphonate], for which the IC50 in assay [1] (setting [3]) turned out to be 1.01 nM; in assay [2] (setting [4]), 271 nM.
As for `COC[C@]1(O)/C=C/C[C@H](C)[C@@H](C)S(=O)(=O)NC(=O)c2ccc3c(c2)N(C[C@@H]2CC[C@H]21)C[C@@]1(CCCc2cc(Cl)ccc21)CO3` [Example 100378, (1S,3′R,6′R,7′S,8′E,11′S,12′R)-6-chloro-7′-hydroxy-7′-(methoxymethyl)-11′,12′-dimethyl-3,4-dihydro-2H,15′H-spiro[naphthalene-1,22′-[20]oxa[13]thia[1,14]diazatetracyclo [14.7.2.0~3,6~.0~19,24~]pentacosa[8,16,18,24]tetraen]-15′-one 13′,13′-dioxide], the IC50 in assay [1] (setting [3]) is 0.037 nM; in assay [2] (setting [5]) it was 111 nM.
For `CO[C@@]1(Cc2nc(CO)co2)/C=C/C[C@H](C)[C@@H](C)S(=O)(=O)NC(=O)c2ccc3c(c2)N(C[C@@H]2CC[C@H]21)C[C@@]1(CCCc2cc(Cl)ccc21)CO3` [Example 100570, (1S,3′R,6′R,7′S,8′E,11′S,12′R)-6-chloro-7′-((4-(hydroxymethyl)-1,3-oxazol-2-yl)methyl)-7′-methoxy-11′,12′-dimethyl-3,4-dihydro-2H,15′H-spiro[naphthalene-1,22′-[20]oxa[13]thia[1,14]diazatetracyclo [14.7.2.0~3,6~.0~19,24~]pentacosa[8,16,18,24]tetraen]-15′-one 13′,13′-dioxide], the results for the IC50 in assay [1] (setting [3]) and in assay [2] (setting [5]) were 3.38 nM and 5050 nM, respectively.
For `CO[C@]1(CN2CCN3CC[C@H](F)C[C@@H]3C2)/C=C/C[C@H](C)[C@@H](C)S(=O)(=O)NC(=O)c2ccc3c(c2)N(C[C@@H]2CC[C@H]21)C[C@@]1(CCCc2cc(Cl)ccc21)CO3` (single isomer, unassigned) [Example 326], the IC50 in assay [1] (setting [6]) is 0.307 nM; in assay [2] (setting [7]), 488 nM.
For the compound `CO[C@@]1(C)/C=C/C[C@H](C)[C@@H](CCN2CCOCC2)S(=O)(=O)NC(=O)c2ccc3c(c2)N(C[C@@H]2CC[C@H]21)C[C@@]1(CCCc2cc(Cl)ccc21)CO3` (single isomer, unassigned) [Example 100599], the IC50 in assay [1] (setting [3]) was 1.15 nM; in assay [2] (setting [4]), 1140 nM.
Regarding `C[C@@H]1[C@@H](C)C/C=C/[C@@](O)(CS(C)(=O)=O)[C@@H]2CC[C@H]2CN2C[C@@]3(CCCc4cc(Cl)ccc43)COc3ccc(cc32)C(=O)NS1(=O)=O` [Example 100073, (1S,3′R,6′R,7′S,8′E,11′S,12′R)-6-chloro-7′-hydroxy-11′,12′-dimethyl-7′-((methylsulfonyl)methyl)-3,4-dihydro-2H,15′H-spiro[naphthalene-1,22′-[20]oxa[13]thia[1,14]diazatetracyclo [14.7.2.0~3,6~.0~19,24~]pentacosa[8,16,18,24]tetraen]-15′-one 13′,13′-dioxide], the IC50 was 0.346 nM in assay [1] (setting [3]) and 1200 nM in assay [2] (setting [4]).
As for `C[C@@H]1[C@@H](C)CCC[C@](C)(O)[C@@H]2CC[C@H]2CN2C[C@@]3(CCCc4cc(Cl)ccc43)COc3ccc(cc32)C(=O)NS1(=O)=O` [Example 100049, (1S,3′R,6′R,7′S,11′S,12′R)-6-chloro-7′-hydroxy-7′,11′,12′-trimethyl-3,4-dihydro-2H,15′H-spiro[naphthalene-1,22′-[20]oxa[13]thia[1,14]diazatetracyclo [14.7.2.0~3,6~.0~19,24~]pentacosa[16,18,24]trien]-15′-one 13′,13′-dioxide], the IC50 was found to be 1.26 nM in assay [1] (setting [3]) and 2150 nM in assay [2] (setting [5]).
For the compound `CO[C@]1(CN(C)C)/C=C/C[C@H](C)[C@@H](C)S(=O)(=O)NC(=O)c2ccc3c(c2)N(C[C@@H]2CC[C@H]21)C[C@@]1(CCCc2cc(Cl)ccc21)CO3` [Example 69, (1S,3′R,6′R,7′R,8′E,11′S,12′R)-6-chloro-7′-((dimethylamino)methyl)-7′-methoxy-11′,12′-dimethyl-3,4-dihydro-2H,15′H-spiro[naphthalene-1,22′-[20]oxa[13]thia[1,14]diazatetracyclo [14.7.2.0~3,6~.0~19,24~]pentacosa[8,16,18,24]tetraen]-15′-one 13′,13′-dioxide], the figures for the IC50 in assay [1] (setting [6]) and in assay [2] (setting [8]) were 3.83 nM and 1480 nM, respectively.
For the compound `CO[C@]1(CN2CCN3CCS(=O)(=O)C[C@@H]3C2)/C=C/C[C@H](C)[C@@H](C)S(=O)(=O)NC(=O)c2ccc3c(c2)N(C[C@@H]2CC[C@H]21)C[C@@]1(CCCc2cc(Cl)ccc21)CO3` (single isomer, unassigned) [Example 221], the figures for the IC50 in assay [1] (setting [6]) and in assay [2] (setting [7]) were 0.069 nM and 120 nM, respectively.
As for `C[C@@H]1[C@@H](C)C[C@H]2C=CC[C@](O)(C2)[C@@H]2CC[C@H]2CN2C[C@@]3(CCCc4cc(Cl)ccc43)COc3ccc(cc32)C(=O)NS1(=O)=O` [Example 100057, (1S,3′R,6′R,7′S,11′R,13′S,14′R)-6-chloro-7′-hydroxy-13′,14′-dimethyl-3,4-dihydro-2H,17′H-spiro[naphthalene-1,24′-[22]oxa[15]thia[1,16]diazapentacyclo [16.7.2.1~7,11~.0~3,6~.0~21,26~]octacosa [9,18,20,26]tetraen]-17′-one 15′,15′-dioxide], the half-inhibitory concentration (IC50) in assay [1] (setting [3]) came out at 0.568 nM; in assay [2] (setting [5]), 2600 nM.
As for `C[C@@H]1[C@@H](C)C/C=C/[C@@](O)(C#CCO)[C@@H]2CC[C@H]2CN2C[C@@]3(CCCc4cc(Cl)ccc43)COc3ccc(cc32)C(=O)NS1(=O)=O` [Example 100395, (1S,3′R,6′R,7′S,8′E,11′S,12′R)-6-chloro-7′-hydroxy-7′-(3-hydroxy-1-propyn-1-yl)-11′,12′-dimethyl-3,4-dihydro-2H,15′H-spiro[naphthalene-1,22′-[20]oxa[13]thia[1,14]diazatetracyclo [14.7.2.0~3,6~.0~19,24~]pentacosa[8,16,18,24]tetraen]-15′-one 13′,13′-dioxide], the IC50 is 0.056 nM in assay [1] (setting [3]) and 40 nM in assay [2] (setting [4]).
Turning to `C[C@@H]1[C@@H](C)CCC[C@@](O)(CCN2CCCCC2)[C@@H]2CC[C@H]2CN2C[C@@]3(CCCc4cc(Cl)ccc43)COc3ccc(cc32)C(=O)NS1(=O)=O` [Example 100091, (1S,3′R,6′R,7′R,11′S,12′R)-6-chloro-7′-hydroxy-11′,12′-dimethyl-7′-(2-(1-piperidinyl)ethyl)-3,4-dihydro-2H,15′H-spiro[naphthalene-1,22′-[20]oxa[13]thia[1,14]diazatetracyclo [14.7.2.0~3,6~.0~19,24~]pentacosa[16,18,24]trien]-15′-one 13′,13′-dioxide], the IC50 came to 1.2 nM in assay [1] (setting [3]) and 1350 nM in assay [2] (setting [5]).
For `CO[C@@]1(CN2CCN3CCC(F)(F)C[C@@H]3C2)/C=C/C[C@H](C)[C@@H](C)S(=O)(=O)NC(=O)c2ccc3c(c2)N(C[C@@H]2CC[C@H]21)C[C@@]1(CCCc2cc(Cl)ccc21)CO3` (single isomer, unassigned) [Example 288], the IC50 in assay [1] (setting [6]) came to 0.484 nM; in assay [2] (setting [7]), 652 nM.
With `C[C@@H]1[C@@H](C)C/C=C/[C@]2(CNCCO2)[C@@H]2CC[C@H]2CN2C[C@@]3(CCCc4cc(Cl)ccc43)COc3ccc(cc32)C(=O)NS1(=O)=O` [Example 134, (1S,3′R,6′R,7′R,8′E,11′S,12′R)-6-chloro-11′,12′-dimethyl-3,4-dihydro-2H,15′H-dispiro[naphthalene-1,22′-[20]oxa[13]thia[1,14]diazatetracyclo [14.7.2.0~3,6~.0~19,24~]pentacosa[8,16,18,24]tetraene-7′,2″-[1,4]oxazinan]-15′-one 13′,13′-dioxide], the IC50 worked out at 4.64 nM in assay [1] (setting [6]) and 3000 nM in assay [2] (setting [8]).
As to `C[C@@H]1[C@@H](C)C/C=C/[C@](CN2CCN3CCOC[C@@H]3C2)(OCC(F)(F)F)[C@@H]2CC[C@H]2CN2C[C@@]3(CCCc4cc(Cl)ccc43)COc3ccc(cc32)C(=O)NS1(=O)=O` [Example 49, (1S,3′R,6′R,7′S,8′E,11′S,12′R)-6-chloro-7′-((9aS)-hexahydropyrazino[2,1-c][1,4]oxazin-8(1H)-ylmethyl)-11′,12′-dimethyl-7′-(2,2,2-trifluoroethoxy)-3,4-dihydro-2H,15′H-spiro[naphthalene-1,22′-[20]oxa[13]thia[1,14]diazatetracyclo [14.7.2.0~3,6~.0~19,24~]pentacosa[8,16,18,24]tetraen]-15′-one 13′,13′-dioxide], the IC50 in assay [1] (setting [6]) is 0.087 nM; in assay [2] (setting [8]), 185 nM.
For the compound `Cc1ncc([C@]2(O)/C=C/C[C@H](C)[C@@H](C)S(=O)(=O)NC(=O)c3ccc4c(c3)N(C[C@@H]3CC[C@H]32)C[C@@]2(CCCc3cc(Cl)ccc32)CO4)n1C` (single isomer, unassigned) [Example 100559], the values for the IC50 in assay [1] (setting [3]) and in assay [2] (setting [5]) were 0.113 nM and 1030 nM, respectively.

The term IC50 denotes the concentration needed to halve the response being measured.
